Results: patent US8039458B2, “HIV integrase inhibitors” (priority 2005, dated 2011)

What was measured:
HIV-Integrase = target: T1, HIV-Integrase (Human immunodeficiency virus type 1 group M subtype B, UniProt P12497); assay: HIV-Integrase binding assay (competition with [3H]-compound I, SPA); conditions: competitive binding vs [3H]-compound I to purified integrase; Ki by Cheng and Prusoff; read-out: in vitro binding
T1 construct: Recombinant integrase (0.26 ng) was incubated with the beads
Method: HIV-Integrase Inhibition Activity. To evaluate in-vitro activity against HIV-integrase, 5 pmole of biotin labeled substrate DNA was bound to 100 μg of Streptavidin coated PVT SPA beads (Amersham Pharmacia Biotech). Recombinant integrase (0.26 ng) was incubated with the beads for 90 min at 37° C. Unbound enzyme was removed by washing the complex followed by addition of inhibitors and 0.1 fmol of P33 labeled target DNA. The reaction was stopped by adding EDTA to a final concentration of 10 mM. Samples were counted in TopCountNXT (Packard) and the CPM was used as a measure of integration. The reaction condition was as described in A. Engelman and R. Craigie, J. Virol. 69, 5908-5911 (1995). The sequences of substrate and target DNA were described in Nucleic Acid Research 22,1121-1122 (1994).
HIV-Integrase binding assay. In this assay competitive binding experiments with test compounds and a radiolabeled integrase inhibitor (compound I) are performed against purified integrase. SPA bead/DNA/enzyme complexes were prepared as for the integrase inhibition assay except, to each well, 0.69 μl of integrase enzyme ([…]) was used per 2 μl of LTR DNA-attached scintillation proximity beads (stock 50 mg/ml). Binding reactions were carried out in 96-well white polystyrene assay plates (Corning, #3600). The following was added sequentially to each well: 20 μl of water or 20 μl of human serum (Cellgro Cat# 35-060-CL), 5 μl of serially diluted compound (in 50% DMSO/50% integrase SPA buffer), 5 μl of [^3H]-compound I (6,000 cpm/μl in SPA buffer) and 20 μl of bead/DNA/enzyme complex. The plates were shaken for 2 hours and then allowed to sit at room temperature without shaking overnight. The [^3H]-compound I binding was measured using a Topcount scintillation counter. Cheng and Prusoff equations were used to convert the inhibition of compound 1 binding into the corresponding Ki value. Activity equal to A refers to a compound having Ki=0.001 to 0.003 μM while B and C denote compounds having Ki=0.003 to 0.05 μM and Ki≧0.050 μM respectively.

[1] = system: recombinant NL-Rluc virus; assay: Inhibition of HIV replication (NL-RLuc virus, Renilla luciferase); format: cell-based; conditions: Human immunodeficiency virus 1, read-out: antiviral actitively

Molecule CC1(C)COCCn2c1nc(C(=O)NCc1ccc(F)cc1)c(O)c2=O [Example 1, N-((4-Fluorophenyl)methyl)-3-hydroxy-10,10-dimethyl-4-oxo-6,7,9,10-tetrahydro-4H-pyrimido[1,2-d][1,4]oxazepine-2-carboxamide] has a Ki (HIV-Integrase) of 3 to 50 nM and an EC50 [1] of 10 to 50 nM.
In the case of CC1(C)COCCn2c1nc(C(=O)NCc1ccc(F)cc1-n1cncn1)c(O)c2=O [Example 2, N-((4-Fluoro-2-(1H-1,2,4-triazol-1-yl)phenyl)methyl)-3-hydroxy-10,10-dimethyl-4-oxo-6,7,9,10-tetrahydro-4H-pyrimido[1,2-d][1,4]oxazepine-2-carboxamide], the Ki (HIV-Integrase) is reported as 3 to 50 nM and the EC50 [1] is reported as 1 to 10 nM.
CC1(C)COCCn2c1nc(C(=O)NCc1ccc(F)cc1S(C)(=O)=O)c(O)c2=O [Example 3, N-((4-Fluoro-2-(methylsulfonyl)phenyl)methyl)-3-hydroxy-10,10-dimethyl-4-oxo-6,7,9,10-tetrahydro-4H-pyrimido[1,2-d][1,4]oxazepine-2-carboxamide] was tested, and the Ki (HIV-Integrase) was 3 to 50 nM and the EC50 [1] was 1 to 10 nM.
Cc1ncnn1-c1cc(F)ccc1CNC(=O)c1nc2n(c(=O)c1O)CCOCC2(C)C [Example 4, N-((4-Fluoro-2-(5-methyl-1H-1,2,4-triazol-1-yl)phenyl)methyl)-3-hydroxy-10,10-dimethyl-4-oxo-6,7,9,10-tetrahydro-4H-pyrimido[1,2-d][1,4]oxazepine-2-carboxamide] showed a Ki (HIV-Integrase) of 3 to 50 nM and an EC50 [1] of 1 to 10 nM.
Work on Cc1nc(C)n(-c2cc(F)ccc2CNC(=O)c2nc3n(c(=O)c2O)CCOCC3(C)C)n1 [Example 5, N-((2-(3,5-dimethyl-1H-1,2,4-triazol-1-yl)-4-fluorophenyl)methyl)-3-hydroxy-10,10-dimethyl-4-oxo-6,7,9,10-tetrahydro-4H-pyrimido[1,2-d][1,4]oxazepine-2-carboxamide] yielded a Ki (HIV-Integrase) of 3 to 50 nM and an EC50 [1] of 10 to 50 nM.
Cc1ncn(-c2cc(F)ccc2CNC(=O)c2nc3n(c(=O)c2O)CCOCC3(C)C)n1 [Example 6, N-((4-fluoro-2-(3-methyl-1H-1,2,4-triazol-1-yl)phenyl)methyl)-3-hydroxy-10,10-dimethyl-4-oxo-6,7,9,10-tetrahydro-4H-pyrimido[1,2-d][1,4]oxazepine-2-carboxamide] gave a Ki (HIV-Integrase) of 3 to 50 nM and an EC50 [1] of 1 to 10 nM.
With O=C(NCc1ccc(F)cc1)c1nc2n(c(=O)c1O)CCOCC21CCC1 [Example 7, N-((4-fluorophenyl)methyl)-3′-hydroxy-4′-oxo-6′,7′-dihydro-4′H-spiro[cyclobutane-1,10′-pyrimido[1,2-d][1,4]oxazepine]-2′-carboxamide] the Ki (HIV-Integrase) was 1 to 3 nM and the EC50 [1] was 10 to 50 nM.
With CS(=O)(=O)c1cc(F)ccc1CNC(=O)c1nc2n(c(=O)c1O)CCOCC21CCC1 [Example 8, N-((4-fluoro-2-(methylsulfonyl)phenyl)methyl)-3′-hydroxy-4′-oxo-6′,7′-dihydro-4′H-spiro[cyclobutane-1,10′-pyrimido[1,2-d][1,4]oxazepine]-2′-carboxamide] the Ki (HIV-Integrase) was 1 to 3 nM and the EC50 [1] was 1 to 10 nM.
Work on O=C(NCc1ccc(F)cc1-n1cncn1)c1nc2n(c(=O)c1O)CCOCC21CCC1 [Example 9, N-((4-fluoro-2-(1H-1,2,4-triazol-1-yl)phenyl)methyl)-3′-hydroxy-4′-oxo-6′,7′-dihydro-4′H-spiro[cyclobutane-1,10′-pyrimido[1,2-d][1,4]oxazepine]-2′-carboxamide] yielded a Ki (HIV-Integrase) of 1 to 3 nM and an EC50 [1] of 1 to 10 nM.
With Cc1ncnn1-c1cc(F)ccc1CNC(=O)c1nc2n(c(=O)c1O)CCOCC21CCC1 [Example 10, N-((4-fluoro-2-(5-methyl-1H-1,2,4-triazol-1-yl)phenyl)methyl)-3′-hydroxy-4′-oxo-6′,7′-dihydro-4′H-spiro[cyclobutane-1,10′-pyrimido[1,2-d][1,4]oxazepine]-2′-carboxamide] the Ki (HIV-Integrase) was 1 to 3 nM and the EC50 [1] was 1 to 10 nM.
